Like-named read-outs stand apart in the source and are kept apart here.
Tests used:
[1] = biological target: full-length RORγt in Jurkat cells (Homo sapiens (Human), UniProt P51449); test: RORγt 5xRORE Assay in Jurkat Cells (Assay 2); format: cell-based; settings: Nanoluc luciferase reporter, 16-18 hrs
Method: [formula] RORγt 5xRORE Assay in Jurkat Cells (Assay 2)
Compounds of the present invention were tested for RORγ inverse agonist activity in a cell-based, transcriptional activity assay. Secreted Nanoluc® luciferase was used as a reporter for transcriptional activity of the full-length RORγt in Jurkat cells (ATCC, Cat. # TIB-152). A reporter plasmid was constructed by inserting 5 repeats of the ROR Response Element (RORE) […] (SEQ ID NO:1) into a commercially available promoterless plasmid pNL1.3[secNluc] (Promega, Cat. # N1021) using KpnI and HindIII restriction sites. The expression plasmid for RORγt was purchased (Geneocopoeia, Cat. # EX-T6988-M02). Jurkat cells (30 million cells) were transfected with 11 μg of EX-T6988-MO2 and 26 μg of the reporter plasmid in OptiMEM® media using Lipofectamine® LTX and Plus™ reagents (Life Technologies, Cat. #15338-100). After 5-6 h of incubation at 37° C./5% CO2, the cells were collected, resuspended in phenol-red free RPMI media containing 10% (v/v) delipidated FBS (Hyclone, Cat. # SH30855.03) and dispensed into 96-well clear bottom tissue culture plates (CoStar, Cat. #3603), at 80,000 cells per well. Tested compounds were added to the cells in the same media (final concentration of DMSO was 0.1% (v/v)), and the plates were incubated at 37° C./5% CO2 for 16-18 hrs. Luciferase activity in the conditioned supernatants was determined with NanoGlo® assay reagents (Promega, Cat. # N1130).

[2] = biological target: recombinant RORγ Ligand Binding Domain (LBD) protein (Homo sapiens (Human), UniProt P51449); test: Radio-Ligand RORγ Binding Assay (Assay 1); settings: competition with 25-hydroxy [26,27-3H]-cholesterol, SPA, read-out: RORγ Binding Ki Range*
Chain of recombinant RORγ Ligand Binding Domain (LBD) protein (P51449 269-508): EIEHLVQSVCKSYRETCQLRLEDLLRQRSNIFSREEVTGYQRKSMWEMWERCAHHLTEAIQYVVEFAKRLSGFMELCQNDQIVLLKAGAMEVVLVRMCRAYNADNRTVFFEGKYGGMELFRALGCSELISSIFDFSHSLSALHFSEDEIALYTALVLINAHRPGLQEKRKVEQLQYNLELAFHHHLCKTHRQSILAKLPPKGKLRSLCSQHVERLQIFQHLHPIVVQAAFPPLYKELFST
Method in brief: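 Recombinant human RORγ ligand binding domain (6×His-GST fusion, 24 nM stock) competed with tritiated 25-hydroxycholesterol (8.6 nM stock) in HEPES buffer pH 7.4 with detergents and DTT; poly-Lys YSi SPA beads, room temperature, tritium SPA signal. Four-parameter IC50 from semi-log dilutions, normalised to DMSO and 10 μM T0901317, then Ki via KD equation.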

[3] = Table 9, read-out: RORγt5X IC50 Range*
[4] = Table 8, read-out: RORγt5X IC50 Range*

Chain of full-length RORγt in Jurkat cells (P51449 other isoform, or with tags, fused parts or gaps): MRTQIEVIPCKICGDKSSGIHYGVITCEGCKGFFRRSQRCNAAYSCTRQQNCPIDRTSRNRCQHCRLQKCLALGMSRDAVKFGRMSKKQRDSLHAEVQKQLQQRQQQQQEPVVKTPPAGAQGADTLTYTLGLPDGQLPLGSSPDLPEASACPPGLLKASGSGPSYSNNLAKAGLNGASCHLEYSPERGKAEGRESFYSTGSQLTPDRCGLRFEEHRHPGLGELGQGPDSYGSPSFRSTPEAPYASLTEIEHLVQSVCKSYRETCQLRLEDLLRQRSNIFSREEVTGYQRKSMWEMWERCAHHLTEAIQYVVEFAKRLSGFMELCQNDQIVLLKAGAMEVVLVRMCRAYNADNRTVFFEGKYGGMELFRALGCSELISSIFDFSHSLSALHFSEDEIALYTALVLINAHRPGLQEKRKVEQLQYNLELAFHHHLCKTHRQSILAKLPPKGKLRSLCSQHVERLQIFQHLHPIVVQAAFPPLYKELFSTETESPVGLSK

| IC50 [1, 3] [nM] | Ki ([2]; Table 9) [nM] | IC50 [1, 4] [nM] | Ki ([2]; Table 8) [nM] | Compound |
| --- | --- | --- | --- | --- |
| 100 to 1000 | 100 to 1000 |  |  | CCS(=O)(=O)c1ccc(CNC(=O)c2nc3c(s2)CN(Cc2ccc(C(F)(F)F)nc2)[C@H]3C(C)C)cc1 |
| > 1000 | < 100 |  |  | CC[C@@H]1c2nc(NC(=O)Cc3ccc(S(=O)(=O)CC)cc3)sc2CN1Cc1ccccc1F |
|  |  | < 100 | < 100 | CC(C)[C@H]1c2nc(NC(=O)Cc3ccc(S(C)(=O)=O)cc3)sc2CN1Cc1ccc(-c2nnn(C)n2)cc1 [I-B9] |
|  |  | < 100 | < 100 | CCS(=O)(=O)c1ccc(CC(=O)Nc2nc3c(s2)CN(Cc2ccc(C#N)c(OC)n2)[C@H]3C(C)C)cc1 [I-A51] |
| > 1000 | < 100 |  |  | CCS(=O)(=O)c1ccc(CC(=O)Nc2nc3c(s2)CN(c2nccc(C(F)(F)F)n2)[C@H]3C(C)C)cc1 |
|  |  | < 100 | < 100 | CCS(=O)(=O)c1ccc(CC(=O)Nc2nc3c(s2)CN(Cc2ccc(OC(F)F)cn2)[C@H]3C(C)C)cc1 [I-A54] |
| > 1000 | < 100 |  |  | CCS(=O)(=O)c1ccc(CC(=O)Nc2nc3c(s2)CN(Cc2cc(C(F)(F)F)cc(C(F)(F)F)c2)[C@@H]3C(C)C)cc1 |
| > 1000 | < 100 |  |  | CC(C)[C@@H]1c2nc(NC(=O)Cc3ccc(S(C)(=O)=O)cc3)sc2CN1Cc1cccc(Br)c1 |
|  |  | < 100 | < 100 | CCS(=O)(=O)c1ccc(CC(=O)Nc2nc3c(s2)CN(Cc2ccc(-c4nnn(C)n4)cc2)[C@H]3C(C)C)nc1 [I-C9] |
| > 1000 | 100 to 1000 |  |  | CC(C)Oc1ccc(CC(=O)Nc2nc3c(s2)CN(Cc2ccc(Cl)cc2)[C@H]3C(C)C)cc1 |
| > 1000 | 100 to 1000 |  |  | CCS(=O)(=O)c1ccc(CC(=O)Nc2nc3c(s2)CN(Cc2ccnc(C(F)(F)F)c2)[C@@H]3C(C)C)cc1 |
| 100 to 1000 | < 100 |  |  | CCS(=O)(=O)c1ccc(CC(=O)Nc2nc3c(s2)CN(C[C@H]2CC[C@H](OC)CC2)[C@H]3C(C)C)cc1 |
| > 1000 | < 100 |  |  | CCS(=O)(=O)c1ccc(CC(=O)Nc2nc3c(s2)CN(Cc2cccc(C(F)(F)F)c2)[C@@H]3C(C)C)cc1 |
| > 1000 | < 100 |  |  | CCS(=O)(=O)c1ccc(CC(=O)Nc2nc3c(s2)CN(C[C@H]2CC[C@@H](C(F)(F)F)N(C4CC4)C2)[C@H]3C(C)C)cc1 (single isomer, unassigned) |
|  |  | < 100 | < 100 | CC[C@H](C)C1c2nc(NC(=O)Cc3ccc(S(C)(=O)=O)cc3)sc2CN1Cc1ccc(Cl)cn1 (some centres unmarked) [I-H3] |
| > 1000 | < 100 |  |  | CC[C@@H]1c2nc(NC(=O)Cc3ccc(S(=O)(=O)CC)cc3)sc2CN1Cc1ccc(OC(C)C)cc1 |
| < 100 | < 100 |  |  | Cc1nc(C(F)(F)F)ccc1CN1Cc2sc(NC(=O)Cc3ccc(S(C)(=O)=O)cc3F)nc2[C@@H]1C(C)C |
| 100 to 1000 | < 100 |  |  | CC(C)[C@H]1c2nc(C(=O)NCc3ccc(S(C)(=O)=O)cc3)sc2CN1Cc1ccc(C#N)cc1 |
| > 1000 | < 100 |  |  | CCS(=O)(=O)c1ccc(CC(=O)Nc2nc3c(s2)CN(Cc2ccc(F)c(F)c2)[C@H]3C(C)C)cc1 |
| 100 to 1000 | < 100 |  |  | CCS(=O)(=O)c1ccc(CC(=O)Nc2nc3c(s2)CN(Cc2ccc(C(=O)O)cc2)[C@H]3C(C)C)cc1 |
|  |  | < 100 | < 100 | CCS(=O)(=O)c1ccc(CC(=O)Nc2nc3c(s2)CN([C@H](C)c2ccc(Cl)cn2)[C@H]3C(C)C)cc1 [I-A47] |
| > 1000 | 100 to 1000 |  |  | Cc1cc(C(F)(F)F)nc(N2Cc3sc(NC(=O)Cc4ccc(S(C)(=O)=O)cc4)nc3[C@H]2C(C)C)n1 |
| 100 to 1000 | < 100 |  |  | CC[C@@]1(C)c2nc(NC(=O)Cc3ccc(S(=O)(=O)CC)cc3)sc2CN1Cc1ccc(C#N)cc1 |
| 100 to 1000 | < 100 |  |  | CCS(=O)(=O)c1ccc(CC(=O)Nc2nc3c(s2)CN(C[C@H]2CC[C@@](C)(C#N)CC2)[C@H]3C(C)C)nc1 (single isomer, unassigned) |
| > 1000 | 100 to 1000 |  |  | CC(C)[C@H]1c2nc(NC(=O)Cc3ccc(S(C)(=O)=O)cc3)sc2CN1Cc1ccn(C)c(=O)c1 |

| IC50 [1, 3] [nM] | Ki ([2]; Table 9) [nM] | IC50 [1, 4] [nM] | Ki ([2]; Table 8) [nM] | Compound |
| --- | --- | --- | --- | --- |
| < 100 | < 100 |  |  | Cc1nnc(-c2ccc(CN3Cc4sc(NC(=O)Cc5ccc(S(C)(=O)=O)cc5)nc4[C@@H]3C(C)C)cc2)o1 |
| > 1000 | < 100 |  |  | CCS(=O)(=O)c1ccc(CC(=O)Nc2nc3c(s2)CN([C@H](C)Cc2ccc(Cl)cc2)[C@H]3C(C)C)cc1 (single isomer, unassigned) |
| < 100 | < 100 |  |  | CCS(=O)(=O)c1ccc(CC(=O)Nc2nc3c(s2)CN(C[C@H]2CC[C@](C)(OC)CC2)[C@H]3C(C)C)nc1 (single isomer, unassigned) |
| 100 to 1000 | < 100 |  |  | CC[C@H]1c2nc(NC(=O)Cc3ccc(S(=O)(=O)CC)cc3)sc2CN1[C@@H](C)c1ncc(Cl)cc1F |
| > 1000 | < 100 |  |  | CCS(=O)(=O)c1ccc(CC(=O)Nc2nc3c(s2)CN(C[C@H]2CC[C@@H](C(F)(F)F)OC2)[C@H]3C(C)C)cc1 (single isomer, unassigned) |
| > 1000 | < 100 |  |  | CCS(=O)(=O)c1ccc(CC(=O)Nc2nc3c(s2)CN(c2nc(C)cc(C(F)(F)F)n2)[C@H]3C(C)C)cc1 |
| > 1000 | < 100 |  |  | CCS(=O)(=O)c1ccc(CC(=O)Nc2nc3c(s2)CN(c2ncc(C(F)(F)F)cn2)[C@H]3C(C)C)cc1 |
| 100 to 1000 | 100 to 1000 |  |  | CCS(=O)(=O)c1ccc(CNC(=O)c2nc3c(s2)CN(Cc2cnc(C(F)(F)F)nc2)[C@H]3C(C)C)cc1 |
| > 1000 | 100 to 1000 |  |  | CC(C)[C@@H]1c2nc(NC(=O)Cc3ccc(S(C)(=O)=O)cc3)sc2CN1[C@H](C)c1ccc(OC(F)(F)F)cc1 (single isomer, unassigned) |
| > 1000 | < 100 |  |  | CCS(=O)(=O)c1ccc(CC(=O)Nc2nc3c(s2)CN(C[C@H]2CC[C@H](C(F)(F)F)N(C4CC4)C2)[C@H]3C(C)C)cc1 (single isomer, unassigned) |
| < 100 | < 100 |  |  | CCS(=O)(=O)c1ccc(CC(=O)Nc2nc3c(s2)CN(Cc2ccc(Cl)cc2)[C@@]3(C)C(C)C)cc1 |
| 100 to 1000 | < 100 |  |  | CCS(=O)(=O)c1ccc(CC(=O)Nc2nc3c(s2)CN(Cc2ccc(C#N)cc2)[C@@H]3C(C)(C)C)cc1 |
|  |  | < 100 | < 100 | CC(C)[C@H]1c2nc(NC(=O)Cc3ccc(S(C)(=O)=O)cc3)sc2CN1Cc1ccc(C(F)(F)F)nc1 [I-B5] |
| 100 to 1000 | 100 to 1000 |  |  | CC(C)[C@H]1c2nc(NC(=O)Cc3ccc(F)c(F)c3)sc2CN1Cc1ccc(C(F)(F)F)cc1 |
|  |  | < 100 | < 100 | CC(C)[C@H]1c2nc(NC(=O)Cc3ccc(S(=O)(=O)NC4CC4)cc3)sc2CN1Cc1ccc(Cl)cc1 [I-G1, (S)—N-(5-(4-chlorobenzyl)-4-isopropyl-5,6-dihydro-4H-pyrrolo[3,4-d]thiazol-2-yl)-2-(4-(N-cyclopropylsulfamoyl)phenyl)acetamide] |
| > 1000 | 100 to 1000 |  |  | CC(C)[C@H]1c2nc(NC(=O)Cc3ccc(S(C)(=O)=O)cc3)sc2CN1Cc1ccc(-c2nnn[nH]2)cc1 |
| 100 to 1000 | < 100 |  |  | CCS(=O)(=O)c1ccc(CC(=O)Nc2nc3c(s2)CN(Cc2ccc(C(F)(F)F)c(F)c2)[C@@H]3C(C)C)cc1 |
| 100 to 1000 | < 100 |  |  | CCS(=O)(=O)c1ccc(CC(=O)Nc2nc3c(s2)CN(Cc2ccc(OC(F)(F)F)cc2)[C@@H]3C(C)C)cc1 |
|  |  | < 100 | < 100 | CCS(=O)(=O)c1ccc(CC(=O)Nc2nc3c(s2)CN(Cc2ccc(C(F)(F)F)cc2)[C@H]3C(C)C)nc1 [I-C4] |
| 100 to 1000 | < 100 |  |  | CC[C@H](C)C1c2nc(C(=O)NCc3ccc(S(C)(=O)=O)cc3)sc2CN1Cc1ccc(OC(F)F)cc1 (some centres unmarked) |
|  |  | < 100 | < 100 | CCS(=O)(=O)c1ccc(CC(=O)Nc2nc3c(s2)CN([C@@H](C)c2ccc(Br)cc2F)[C@H]3C(C)C)cc1 [I-A25] |
| > 1000 | < 100 |  |  | CCS(=O)(=O)c1ccc(CC(=O)Nc2nc3c(s2)CN(c2nc4cccnc4s2)[C@H]3C(C)C)cc1 |
|  |  | < 100 | < 100 | CCS(=O)(=O)c1ccc(CC(=O)Nc2nc3c(s2)CN(CC2CCN(CC(F)(F)F)CC2)[C@H]3C(C)C)cc1 [I-A20, (S)-2-(4-(ethylsulfonyl)phenyl)-N-(4-isopropyl-5-((1-(2,2,2-trifluoroethyl)piperidin-4-yl)methyl)-5,6-dihydro-4H-pyrrolo[3,4-d]thiazol-2-yl)acetamide] |
| < 100 | < 100 |  |  | CCS(=O)(=O)c1ccc(CC(=O)Nc2nc3c(s2)CN(Cc2ccc(-c4ccc(=O)n(C)c4)cc2)[C@H]3C(C)C)nc1 |

From patent US9868748B2, “Thiazolopyrrolidine inhibitors of ROR- γ” (Vitae Pharmaceuticals, Inc., priority 2013, dated 2018)
